In patent publication US11479802B2, “Assays for screening activity of modulators of members of the hydroxy steroid (17-beta) dehydrogenase (HSD17B) family” (Regeneron Pharmaceuticals, Inc., priority 2017, dated 2022):

What was measured:
Type in all cases: biochemical
HSD17B11 = biological target: T1, HSD17B11 (Homo sapiens, UniProt Q8NBQ5); experiment: Steroid substrate panel against HSD17B family member B11; conditions: substrate at 50 μM; estradiol set as 100%
T1 construct: made in house
T1 sequence (Q8NBQ5 20-300): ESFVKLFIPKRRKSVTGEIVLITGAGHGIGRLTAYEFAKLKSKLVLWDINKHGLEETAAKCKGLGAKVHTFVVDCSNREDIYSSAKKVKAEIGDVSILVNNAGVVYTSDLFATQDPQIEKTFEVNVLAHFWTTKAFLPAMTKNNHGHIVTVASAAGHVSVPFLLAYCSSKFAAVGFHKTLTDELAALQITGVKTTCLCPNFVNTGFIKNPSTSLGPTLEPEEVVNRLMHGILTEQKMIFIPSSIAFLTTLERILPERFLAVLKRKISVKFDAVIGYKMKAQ
Description: (§1) To understand the functional consequences of premature truncation of the HSD17B13 protein due to rs72613567:TA (the associated variant, rs72613567, is an insertion of an adenine adjacent to the donor splice site of exon six (TA allele)), the enzymatic activity of isoforms A and D was evaluated in vitro using recombinant protein and nicotinamide […] dinucleotide as cofactor. Reactions were performed in a final volume of 40 μl of assay buffer (0.2 M Tris-HCl, pH 7.5) which contained 500 μM NAD^+, 5 μM bioactive lipid or 50 μM steroid (all in a final concentration of 5% DMSO), and 100 ng of recombinant human HSD17B13. Reactions were incubated for 3 hours, at 23° C., after which an equal volume detection reagent was added. Following a 1 hour incubation at 23° C., the relative light units (RLUs) were measured on an Envision Plate Reader (Perkin Elmer). Raw RLU values were normalized as percent of control (50 μM estradiol) following subtraction of negative control (5% DMSO) using the following formula: Percent of control (POC)=100×(Sample (RLU)−Negative CTRLaverage)/(Positive CTRLaverage−Negative CTRLaverage).
(§2) In order to determine specificity of compounds with inhibitory activity against HSD17B13, assays for selected members of the HSD17B family which includes HSD17B1-HSD17B14 were established. As a first step, selected family members were expressed, purified and tested for activity a using a steroid substrate panel. Substrates from the steroid panel were tested at 50 μM, using the standard assay protocol. Activity against the substrates for each HSD17B family member were normalized to Percent of Control (POC). The control, estradiol, was set as 100%.

HSD17B2 = biological target: T2, HSD17B2 (Homo sapiens, UniProt P37059); experiment: Steroid substrate panel against HSD17B family member B2; conditions: substrate at 50 μM; estradiol set as 100%
T2 construct: made in house
T2 sequence (P37059 1-387): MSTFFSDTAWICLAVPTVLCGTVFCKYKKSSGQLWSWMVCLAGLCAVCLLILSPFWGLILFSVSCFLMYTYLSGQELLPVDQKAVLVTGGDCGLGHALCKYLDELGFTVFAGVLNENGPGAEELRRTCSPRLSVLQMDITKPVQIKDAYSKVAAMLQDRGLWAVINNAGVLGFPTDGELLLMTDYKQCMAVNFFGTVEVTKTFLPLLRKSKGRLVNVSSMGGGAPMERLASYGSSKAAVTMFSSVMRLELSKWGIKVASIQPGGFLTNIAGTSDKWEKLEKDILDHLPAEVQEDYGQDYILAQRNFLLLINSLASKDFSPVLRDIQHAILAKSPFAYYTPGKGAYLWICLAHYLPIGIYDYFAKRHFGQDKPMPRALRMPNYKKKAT
Description: as §1, §2

HSD17B10 = biological target: T3, HSD17B10 (Homo sapiens, UniProt Q99714); experiment: Steroid substrate panel against HSD17B family member B10; conditions: substrate at 50 μM; estradiol set as 100%
T3 construct: made in house
T3 sequence (Q99714 1-261): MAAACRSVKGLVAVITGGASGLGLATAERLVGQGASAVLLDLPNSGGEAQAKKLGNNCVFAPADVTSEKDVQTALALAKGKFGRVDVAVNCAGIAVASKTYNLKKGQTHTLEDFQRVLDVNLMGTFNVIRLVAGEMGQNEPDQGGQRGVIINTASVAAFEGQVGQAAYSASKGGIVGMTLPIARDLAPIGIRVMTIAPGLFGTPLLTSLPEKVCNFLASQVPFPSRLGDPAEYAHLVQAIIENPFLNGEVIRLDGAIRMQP
Description: as §1, §2

HSD17B1 = biological target: T4, HSD17B1 (Homo sapiens, UniProt P14061); experiment: Steroid substrate panel against HSD17B family member B1; conditions: substrate at 50 μM; estradiol set as 100%
T4 construct: made in house
T4 sequence (P14061 1-328): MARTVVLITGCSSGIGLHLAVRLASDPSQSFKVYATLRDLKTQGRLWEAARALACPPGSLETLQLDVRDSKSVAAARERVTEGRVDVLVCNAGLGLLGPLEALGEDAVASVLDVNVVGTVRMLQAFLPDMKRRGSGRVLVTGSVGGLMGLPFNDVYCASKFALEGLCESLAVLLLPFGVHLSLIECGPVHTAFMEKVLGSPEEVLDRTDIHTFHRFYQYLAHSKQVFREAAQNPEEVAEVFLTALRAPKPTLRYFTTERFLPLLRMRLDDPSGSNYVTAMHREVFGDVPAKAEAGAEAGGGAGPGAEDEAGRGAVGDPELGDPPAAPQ
Description: as §1, §2

HSD17B4 = biological target: T5, HSD17B4 (Homo sapiens, UniProt P51659); experiment: Steroid substrate panel against HSD17B family member B4; conditions: substrate at 50 μM; estradiol set as 100%
T5 construct: made in house
T5 sequence (P51659 1-736): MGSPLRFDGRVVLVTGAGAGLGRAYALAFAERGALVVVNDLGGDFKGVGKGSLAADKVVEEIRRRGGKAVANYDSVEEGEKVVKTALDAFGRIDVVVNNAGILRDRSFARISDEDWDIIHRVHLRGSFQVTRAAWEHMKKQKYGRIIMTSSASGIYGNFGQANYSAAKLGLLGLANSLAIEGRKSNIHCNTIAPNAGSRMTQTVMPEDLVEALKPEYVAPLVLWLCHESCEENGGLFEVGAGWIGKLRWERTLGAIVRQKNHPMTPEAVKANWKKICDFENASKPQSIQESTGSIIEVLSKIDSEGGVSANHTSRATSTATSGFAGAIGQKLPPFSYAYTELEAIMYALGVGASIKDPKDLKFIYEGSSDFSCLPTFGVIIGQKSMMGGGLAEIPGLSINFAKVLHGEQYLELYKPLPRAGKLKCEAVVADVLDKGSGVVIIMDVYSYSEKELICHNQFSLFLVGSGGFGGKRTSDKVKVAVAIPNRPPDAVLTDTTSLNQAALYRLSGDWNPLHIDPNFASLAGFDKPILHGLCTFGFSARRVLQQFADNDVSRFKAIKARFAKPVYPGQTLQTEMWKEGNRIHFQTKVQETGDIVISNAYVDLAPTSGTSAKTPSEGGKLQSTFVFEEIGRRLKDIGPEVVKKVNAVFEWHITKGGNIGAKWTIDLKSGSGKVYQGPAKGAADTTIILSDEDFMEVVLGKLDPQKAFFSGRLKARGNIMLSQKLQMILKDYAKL
Description: as §1, §2

HSD17B5 = biological target: T6, HSD17B5 (Homo sapiens, UniProt P42330); experiment: Steroid substrate panel against HSD17B family member B5; conditions: substrate at 50 μM; estradiol set as 100%
T6 construct: made in house
T6 sequence (P42330 1-323): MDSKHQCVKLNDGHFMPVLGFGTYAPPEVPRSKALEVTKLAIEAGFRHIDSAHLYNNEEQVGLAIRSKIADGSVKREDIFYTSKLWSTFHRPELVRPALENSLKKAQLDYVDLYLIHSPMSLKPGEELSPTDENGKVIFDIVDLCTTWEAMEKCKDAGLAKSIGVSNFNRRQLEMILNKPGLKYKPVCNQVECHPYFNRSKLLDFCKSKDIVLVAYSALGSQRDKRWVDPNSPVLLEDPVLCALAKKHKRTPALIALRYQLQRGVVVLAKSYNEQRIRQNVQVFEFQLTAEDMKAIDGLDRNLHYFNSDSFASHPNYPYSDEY
Description: as §1, §2

human HSD17B13 = biological target: T7, human HSD17B13 (Homo sapiens, UniProt Q7Z5P4); experiment: Substrate screening of steroid and bioactive lipid libraries against purified recombinant HSD17B13 (NADH-linked luciferase assay); conditions: for HSD17B13 Enzymatic Activity Relative Light Units: 500 μM NAD+, 100 ng enzyme, 3 hours at 23° C.; for HSD17B13 Enzymatic Activity Percent Estradiol Control: normalized to 50 μM estradiol after subtraction of 5% DMSO
T7 sequence (Q7Z5P4 20-300): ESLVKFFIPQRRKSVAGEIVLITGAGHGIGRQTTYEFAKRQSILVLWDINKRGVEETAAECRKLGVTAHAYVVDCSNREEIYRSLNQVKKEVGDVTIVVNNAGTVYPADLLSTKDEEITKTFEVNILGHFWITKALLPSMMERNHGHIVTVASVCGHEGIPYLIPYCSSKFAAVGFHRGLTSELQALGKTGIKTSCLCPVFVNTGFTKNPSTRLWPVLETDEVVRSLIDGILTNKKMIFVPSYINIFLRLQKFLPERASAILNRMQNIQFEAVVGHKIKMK
Procedure, shortened: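 Substrates (bioactive lipids 5 μM, steroids 50 μM; 5% DMSO) tested with 500 μM NAD+ and 100 ng recombinant human HSD17B13 in 0.2 M Tris-HCl pH 7.5, 3 h, 23° C. Luminescent NADH detection followed 1 h later; RLU normalized to estradiol (50 μM, 100%) and DMSO (0%) controls.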

[1] = Bioactive Lipid Library, 5 μM bioactive lipid (Estradiol Control 50 μM)
[2] = Bioactive Lipid Library, 5 μM bioactive lipid

| Compound | Percent of Control (POC), B11 (HSD17B11) | Percent of Control (POC), B2 (HSD17B2) | Percent of Control (POC), B10 (HSD17B10) | Percent of Control (POC), B1 (HSD17B1) | Percent of Control (POC), B4 (HSD17B4) | Percent of Control (POC), B5 (HSD17B5) | HSD17B13 Enzymatic Activity Relative Light Units (human HSD17B13; Steroid Library, 50 μM steroid) | HSD17B13 Enzymatic Activity Percent Estradiol Control (human HSD17B13; Steroid Library, 50 μM steroid) | HSD17B13 Enzymatic Activity Relative Light Units (human HSD17B13; [1]) | HSD17B13 Enzymatic Activity Percent Estradiol Control (human HSD17B13; [2]) |
| --- | --- | --- | --- | --- | --- | --- | --- | --- | --- | --- |
| C[C@]12CC[C@@H](O)C[C@@H]1CC[C@@H]1[C@@H]2CC[C@]2(C)[C@@H](O)CC[C@@H]12 [3a-androstanediol] | 0.0% | 6.2% | −0.4% | 0.0% | 16.4% | 196% |  |  |  |  |
| C[C@]12CC[C@@H](O)C[C@@H]1CC[C@@H]1[C@@H]2[C@@H](O)C[C@@]2(C)[C@H]1CC[C@]2(O)C(=O)CO [5alpha-Tetrahydrocortisol] | 0.0% | 3.1% | 46.3% | −0.1% | 0.2% | 0% | 229040 RLU | 1.20% |  |  |
| C[C@]12CC[C@H](O)C[C@@H]1CC[C@@H]1[C@@H]2CC[C@]2(C)[C@@H](O)CC[C@@H]12 [5alpha-androstane-3beta,17beta-diol] | 0.0% | 42.5% | 1.2% | 0.3% | 38.9% | 0% | 398600 RLU | 4.16% |  |  |
| CC[C@H]1[C@@H](O)[C@@H]2[C@H](CC[C@]3(C)[C@@H]([C@H](C)CCC(=O)O)CC[C@@H]23)[C@@]2(C)CC[C@@H](O)C[C@@H]12 [6-ethylchenodeoxycholic acid] | 0.0% | 0.1% | 39.3% | 0.0% | 4.6% | 192% | 76200 RLU | −1.47% |  |  |
| C[C@]12CC[C@@H](O)C[C@@H]1CC[C@@H]1[C@@H]2C(=O)C[C@]2(C)C(=O)CC[C@@H]12 [11-oxo-androsterone] | 0.0% | 0.0% | 31.4% | 0.0% | 0.4% | 0% | 196640 RLU | 0.63% |  |  |
| C[C@]12CC[C@@H](O)C[C@H]1CC[C@@H]1[C@@H]2C(=O)C[C@]2(C)C(=O)CC[C@@H]12 [11-oxo-etiocholanolone] | 0.0% | 0.0% | 30.7% | −0.1% | 0.2% | 13% | 195960 RLU | 0.62% |  |  |
| Ptdlns-(3,4)-P2 (1,2-dipalmitoyl) (sodium salt) |  |  |  |  |  |  |  |  | 351680 RLU | 2.01% |
| Ptdlns-(3,4,5)-P3 (1,2-dipalmitoyl) (sodium salt) |  |  |  |  |  |  |  |  | 334600 RLU | 0.72% |
| Ptdlns-(4)-P1 (1,2-dipalmitoyl) (ammonium salt) |  |  |  |  |  |  |  |  | 123240 RLU | −15.24% |
| Ptdlns-(4,5)-P2 (1,2-dioctanoyl) (sodium salt) |  |  |  |  |  |  |  |  | 348680 RLU | 1.79% |
| Ptdlns-(4,5)-P2 (1,2-dipalmitoyl) (ammonium salt) |  |  |  |  |  |  |  |  | 24120 RLU | −22.73% |
| Ptdlns-(5)-P1 (1,2-dipalmitoyl) (ammonium salt) |  |  |  |  |  |  |  |  | 19160 RLU | −23.10% |
